Data from US20120172369A1 (priority 2009, published 2012).
Read-outs that look alike come from different tables or passages of the source.

Target: T1, human DGAT1 enzyme (Homo sapiens, UniProt O75907)
T1 construct: made in house; host or cells: Sf9 insect cells (microsomal membranes)
T1 sequence (O75907 1-488): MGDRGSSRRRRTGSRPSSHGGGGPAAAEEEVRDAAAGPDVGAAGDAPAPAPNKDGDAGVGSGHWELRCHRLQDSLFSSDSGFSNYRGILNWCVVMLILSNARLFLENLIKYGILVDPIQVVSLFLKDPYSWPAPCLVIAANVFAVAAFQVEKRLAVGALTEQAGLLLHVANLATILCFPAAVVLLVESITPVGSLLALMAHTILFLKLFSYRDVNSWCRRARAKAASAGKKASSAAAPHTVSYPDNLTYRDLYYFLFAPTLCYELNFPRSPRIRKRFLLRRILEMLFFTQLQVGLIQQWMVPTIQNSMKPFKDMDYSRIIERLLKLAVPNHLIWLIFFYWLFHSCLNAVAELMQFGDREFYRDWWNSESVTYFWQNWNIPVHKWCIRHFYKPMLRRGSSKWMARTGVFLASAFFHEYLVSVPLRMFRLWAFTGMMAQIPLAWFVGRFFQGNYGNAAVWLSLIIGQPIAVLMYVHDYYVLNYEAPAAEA
Assay: in vitro DGAT1 inhibition assay (microsomes, [14C]-palmitoyl-CoA, SPA beads)
Format: biochemical
Description: The in vitro assay to identify DGAT1 inhibitors uses human DGAT1 enzyme expressed in Sf9 insect cells prepared as microsomes. The reaction was initiated by the addition of the combined substrates 1,2-dioleoyl-sn-glycerol and [^14C]-palmitoyl-Co A and incubated with test compounds and microsomal membranes for 2 hours at room temperature. The assay was stopped by adding 0.5 mg wheat germ agglutinin beads in assay buffer with 1% Brij-35 and 1% 3-cholamidopropyldimethyl-ammonio-1-propane sulfonate. Plates were sealed with TopSeal and incubated for 18 hours to allow the radioactive triglyceride product to come into proximity with the bead. Plates were read on a TopCount instrument.
Percent inhibition was calculated as the percent of (test compound inhibition minus non-specific binding) relative to (total binding minus non-specific binding). IC50 values were determined by curve fitting the data to a Sigmoidal dose-response in GraphPad Prism utilizing the following equation:
Y=A+(B−A)/(1+10̂((Log IC50−X))),
where A and B are the bottom and top of the curve (highest and lowest inhibition), respectively, and X is the logarithm of concentration.

[1] = human DGAT1 expressed in Sf9 insect cells, microsomes, 2 hours at room temperature, read-out: IC50

| IC50 [1] [nM] | SMILES | IC50 [nM] |
| --- | --- | --- |
| 625 | Cc1c(C(=O)Nc2ccc(N3CCN(C(=O)[C@H](O)c4ccccc4)CC3)nc2)oc2ccccc12 [Example 2, (R)—N-(6-(4-(2-hydroxy-2-phenylacetyl)piperazin-1-yl)pyridin-3-yl)-3-methylbenzofuran-2-carboxamide] |  |
| 589 | Cc1c(C(=O)Nc2ccc(N3CCN(C(=O)C(O)C(F)(F)F)CC3)nc2)oc2ccccc12 (centres unmarked) [Example 3, 3-methyl-N-(6-(4-(3,3,3-trifluoro-2-hydroxypropanoyl)piperazin-1-yl)pyridin-3-yl)benzofuran-2-carboxamide] |  |
| 46 | Cc1c(C(=O)Nc2ccc(N3CCN(C(=O)Cc4c(F)cccc4F)CC3)nc2)oc2ccccc12 [Example 4, N-(6-(4-(2-(2,6-difluorophenyl)acetyl)piperazin-1-yl)pyridin-3-yl)-3-methylbenzofuran-2-carboxamide] |  |
|  | Cc1c(C(=O)Nc2ccc(N3CCN(C(=O)Nc4ccccc4F)CC3)nc2)oc2c(C)cccc12 [Example 8, 4-(5-(3,7-dimethylbenzofuran-2-carboxamido)pyridin-2-yl)-N-(2-fluorophenyl)piperazine-1-carboxamide] | 48 |
| 49 | Cc1c(C(=O)Nc2ccc(N3CCN(C(=O)Nc4ccccc4F)CC3)nc2)oc2c(F)cccc12 [Example 9, 4-(5-(7-fluoro-3-methylbenzofuran-2-carboxamido)pyridin-2-yl)-N-(2-fluorophenyl)piperazine-1-carboxamide] |  |
| 37 | O=C(Nc1ccc(N2CCN(C(=O)Nc3ccccc3F)CC2)nc1)c1csc2ccccc12 [Example 10, 4-(5-(benzo[b]thiophene-3-carboxamido)pyridin-2-yl)-N-(2-fluorophenyl)piperazine-1-carboxamide] |  |
| 95 | O=C(Nc1ccc(N2CCN(C(=O)Nc3ccccc3F)CC2)nc1)c1coc2ccccc12 [Example 11, 4-(5-(benzofuran-3-carboxamido)pyridin-2-yl)-N-(2-fluorophenyl)piperazine-1-carboxamide] |  |
| 282 | Cc1c(C(=O)Nc2ccc(N3CCN(C(=O)Nc4ccccc4F)CC3)nc2)oc2cc(-c3ccccc3)ccc12 [Example 13, N-(2-fluorophenyl)-4-(5-(3-methyl-6-phenylbenzofuran-2-carboxamido)pyridin-2-yl)piperazine-1-carboxamide] |  |
| 361 | CCOC(=O)c1ccccc1NC(=O)N1CCN(c2ccc(NC(=O)c3oc4ccc(-c5ccccc5)cc4c3C)cn2)CC1 [Example 14, ethyl 2-(4-(5-(3-methyl-5-phenylbenzofuran-2-carboxamido)pyridin-2-yl)piperazine-1-carboxamido)benzoate] |  |
| 52 | Cc1c(C(=O)Nc2ccc(N3CCC(COc4cccc(C(=O)O)c4)CC3)nc2)oc2ccc(-c3ccccc3)cc12 [Example 18, 3-((1-(5-(3-methyl-5-phenylbenzofuran-2-carboxamido)pyridin-2-yl)piperidin-4-yl)methoxy)benzoic acid] |  |
| 115 | Cc1c(C(=O)Nc2ccc(N3CCN(C(=O)Nc4ccccc4F)CC3)nc2)oc2ccc(-c3ccccc3F)cc12 [Example 20, N-(2-fluorophenyl)-4-(5-(5-(2-fluorophenyl)-3-methylbenzofuran-2-carboxamido)pyridin-2-yl)piperazine-1-carboxamide] |  |
| 566 | CCOC(=O)c1ccccc1NC(=O)N1CCN(c2ccc(NC(=O)c3oc4ccc(-c5ccccc5F)cc4c3C)cn2)CC1 [Example 21, ethyl 2-(4-(5-(5-(2-fluorophenyl)-3-methylbenzofuran-2-carboxamido)pyridin-2-yl)piperazine-1-carboxamido)benzoate] |  |
| 59 | Cc1c(C(=O)Nc2ccc(N3CCN(C(=O)Nc4ccccc4C(=O)O)CC3)nc2)oc2ccc(-c3ccccc3F)cc12 [Example 24, 2-(4-(5-(5-(2-fluorophenyl)-3-methylbenzofuran-2-carboxamido)pyridin-2-yl)piperazine-1-carboxamido)benzoic acid] |  |
| 93 | Cc1c(C(=O)Nc2ccc(N3CCC(OCc4cccc(C(=O)O)c4)CC3)nc2)oc2ccc(-c3ccccc3F)cc12 [Example 25, 3-((1-(5-(5-(2-fluorophenyl)-3-methylbenzofuran-2-carboxamido)pyridin-2-yl)piperidin-4-yloxy)methyl)benzoic acid] |  |
| 59 | Cc1c(C(=O)Nc2ccc(N3CCC(COc4cccc(C(=O)O)c4)CC3)nc2)oc2ccc(-c3ccccc3F)cc12 [Example 26, 3-((1-(5-(5-(2-fluorophenyl)-3-methylbenzofuran-2-carboxamido)pyridin-2-yl)piperidin-4-yl)methoxy)benzoic acid] |  |
| 316 | Cc1c(C(=O)Nc2ccc(N3CCN(C(=O)Nc4ccccc4F)CC3)nc2)oc2ccc(-c3cccc(F)c3)cc12 [Example 27, N-(2-fluorophenyl)-4-(5-(5-(3-fluorophenyl)-3-methylbenzofuran-2-carboxamido)pyridin-2-yl)piperazine-1-carboxamide] |  |
| 134 | Cc1c(C(=O)Nc2ccc(N3CCC(OCc4cccc(C(=O)O)c4)CC3)nc2)oc2ccc(-c3cccc(F)c3)cc12 [Example 29, 3-((1-(5-(5-(3-fluorophenyl)-3-methylbenzofuran-2-carboxamido)pyridin-2-yl)piperidin-4-yloxy)methyl)benzoic acid] |  |
| 1420 | CCOC(=O)c1ccccc1NC(=O)N1CCN(c2ccc(NC(=O)c3oc4ccc(-c5cccc(F)c5)cc4c3C)cn2)CC1 [Example 30, ethyl 2-(4-(5-(5-(3-fluorophenyl)-3-methylbenzofuran-2-carboxamido)pyridin-2-yl)piperazine-1-carboxamido)benzoate] |  |
| 84 | Cc1c(C(=O)Nc2ccc(N3CCN(C(=O)Nc4ccccc4C(=O)O)CC3)nc2)oc2ccc(-c3cccc(F)c3)cc12 [Example 31, 2-(4-(5-(5-(3-fluorophenyl)-3-methylbenzofuran-2-carboxamido)pyridin-2-yl)piperazine-1-carboxamido)benzoic acid] |  |
| 93 | Cc1c(C(=O)Nc2ccc(N3CCC(COc4cccc(C(=O)O)c4)CC3)nc2)oc2ccc(-c3cccc(F)c3)cc12 [Example 33, 3-((1-(5-(5-(3-fluorophenyl)-3-methylbenzofuran-2-carboxamido)pyridin-2-yl)piperidin-4-yl)methoxy)benzoic acid] |  |
| 38 | COC(=O)c1cccc(COC2CCN(c3ccc(NC(=O)c4oc5ccc(-c6ccc(F)cc6)cc5c4C)cn3)CC2)c1 [Example 35, methyl 3-((1-(5-(5-(4-fluorophenyl)-3-methylbenzofuran-2-carboxamido)pyridin-2-yl)piperidin-4-yloxy)methyl)benzoate] |  |
| 90 | Cc1c(C(=O)Nc2ccc(N3CCN(C(=O)Nc4ccccc4C(=O)O)CC3)nc2)oc2ccc(-c3ccc(F)cc3)cc12 [Example 36, 2-(4-(5-(5-(4-fluorophenyl)-3-methylbenzofuran-2-carboxamido)pyridin-2-yl)piperazine-1-carboxamido)benzoic acid] |  |
| 106 | Cc1c(C(=O)Nc2ccc(N3CCC(OCc4cccc(C(=O)O)c4)CC3)nc2)oc2ccc(-c3ccc(F)cc3)cc12 [Example 37, 3-((1-(5-(5-(4-fluorophenyl)-3-methylbenzofuran-2-carboxamido)pyridin-2-yl)piperidin-4-yloxy)methyl)benzoic acid] |  |
